Experiments:
Assay in all cases: relative viability (nuclei count vs DMSO), 5 days (fraction); higher = more cells survive
[1] = test system: ChaGo-K-1
Outline: (§1)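 Values are medians from duplicate plates. Each reflects relative viability, defined as the nuclei count of treated wells over that of vehicle wells. Lung cancer cell lines in 1536-well plates were pin-tool dosed one day after seeding with one drug alone or with a fixed anchor-drug dose plus five library-drug doses (not always all listed) in √10 steps, then fixed, stained and imaged at 4× after 5 days.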

[2] = test system: EKVX
Outline: as §1

[3] = test system: EMC-BAC-2
Outline: as §1

[4] = test system: H3255
Outline: as §1

[5] = test system: HARA
Outline: as §1

[6] = test system: HCC-15
Outline: as §1

[7] = test system: HCC-827
Outline: as §1

[8] = test system: LC-2-ad
Outline: as §1

[9] = test system: LCLC-97TM1
Outline: as §1

[10] = test system: LU99A
Outline: as §1

[11] = test system: NCI-H1437
Outline: as §1

[12] = test system: NCI-H1793
Outline: as §1

[13] = test system: NCI-H1915
Outline: as §1

[14] = test system: NCI-H1944
Outline: as §1

[15] = test system: NCI-H2126
Outline: as §1

[16] = test system: NCI-H23
Outline: as §1

[17] = test system: NCI-H322M
Outline: as §1

[18] = test system: NCI-H441
Outline: as §1

[19] = test system: NCI-H460
Outline: as §1

[20] = test system: NCI-H661
Outline: as §1

[21] = test system: PC-3 [JPC-3]
Outline: as §1

[22] = test system: SK-LU-1
Outline: as §1

O=c1[nH]c2ccccc2n1C1CCN(CCCC(c2ccc(F)cc2)c2ccc(F)cc2)CC1 [Pimozide] + O=C(CCCCCCC(=O)Nc1ccccc1)NO [Vorinostat] (partner 1 µM)
relative viability ([1]; first compound 0.08 µM): 0.726
relative viability ([1]; first compound 0.253 µM): 0.668
relative viability ([1]; first compound 0.8 µM): 0.794
relative viability ([1]; first compound 2.53 µM): 0.841
relative viability ([1]; first compound 8 µM): 0.758
relative viability ([2]; first compound 0.253 µM): 0.712
relative viability ([2]; first compound 0.8 µM): 0.601
relative viability ([2]; first compound 2.53 µM): 0.812
relative viability ([2]; first compound 8 µM): 0.641
relative viability ([3]; first compound 0.08 µM): 0.433
relative viability ([3]; first compound 0.253 µM): 0.45
relative viability ([3]; first compound 0.8 µM): 0.384
relative viability ([3]; first compound 2.53 µM): 0.451
relative viability ([3]; first compound 8 µM): 0.456
relative viability ([4]; first compound 0.253 µM): 0.699
relative viability ([4]; first compound 0.8 µM): 0.714
relative viability ([4]; first compound 2.53 µM): 0.843
relative viability ([4]; first compound 8 µM): 0.808
relative viability ([5]; first compound 0.08 µM): 0.433
relative viability ([5]; first compound 0.253 µM): 0.477
relative viability ([5]; first compound 0.8 µM): 0.519
relative viability ([5]; first compound 2.53 µM): 0.484
relative viability ([5]; first compound 8 µM): 0.399
relative viability ([6]; first compound 0.08 µM): 0.828
relative viability ([6]; first compound 0.253 µM): 0.746
relative viability ([6]; first compound 0.8 µM): 0.83
relative viability ([6]; first compound 2.53 µM): 0.788
relative viability ([6]; first compound 8 µM): 0.703
relative viability ([7]; first compound 0.253 µM): 0.791
relative viability ([7]; first compound 0.8 µM): 0.738
relative viability ([7]; first compound 2.53 µM): 0.785
relative viability ([7]; first compound 8 µM): 0.843
relative viability ([8]; first compound 0.08 µM): 0.731
relative viability ([8]; first compound 0.253 µM): 0.661
relative viability ([8]; first compound 0.8 µM): 0.499
relative viability ([8]; first compound 2.53 µM): 0.653
relative viability ([8]; first compound 8 µM): 0.655
relative viability ([9]; first compound 0.08 µM): 0.753
relative viability ([9]; first compound 0.253 µM): 0.738
relative viability ([9]; first compound 0.8 µM): 0.455
relative viability ([9]; first compound 2.53 µM): 0.526
relative viability ([9]; first compound 8 µM): 0.584
relative viability ([10]; first compound 0.08 µM): 0.595
relative viability ([10]; first compound 0.8 µM): 0.418
relative viability ([10]; first compound 2.53 µM): 0.5
relative viability ([10]; first compound 8 µM): 0.537
relative viability ([11]; first compound 0.08 µM): 0.786
relative viability ([11]; first compound 0.253 µM): 0.763
relative viability ([11]; first compound 0.8 µM): 0.767
relative viability ([11]; first compound 2.53 µM): 0.67
relative viability ([11]; first compound 8 µM): 0.405
relative viability ([12]; first compound 0.08 µM): 0.642
relative viability ([12]; first compound 0.253 µM): 0.761
relative viability ([12]; first compound 0.8 µM): 0.693
relative viability ([12]; first compound 2.53 µM): 0.761
relative viability ([12]; first compound 8 µM): 0.624
relative viability ([13]; first compound 0.08 µM): 0.525
relative viability ([13]; first compound 0.253 µM): 0.48
relative viability ([13]; first compound 2.53 µM): 0.432
relative viability ([13]; first compound 8 µM): 0.487
relative viability ([14]; first compound 0.08 µM): 0.563
relative viability ([14]; first compound 2.53 µM): 0.636
relative viability ([14]; first compound 8 µM): 0.47
relative viability ([15]; first compound 0.08 µM): 0.704
relative viability ([15]; first compound 0.253 µM): 0.818
relative viability ([15]; first compound 0.8 µM): 0.782
relative viability ([15]; first compound 2.53 µM): 0.785
relative viability ([15]; first compound 8 µM): 0.868
relative viability ([16]; first compound 0.08 µM): 0.573
relative viability ([16]; first compound 0.253 µM): 0.551
relative viability ([16]; first compound 0.8 µM): 0.49
relative viability ([16]; first compound 2.53 µM): 0.575
relative viability ([16]; first compound 8 µM): 0.52
relative viability ([17]; first compound 0.08 µM): 0.885
relative viability ([17]; first compound 0.253 µM): 0.844
relative viability ([17]; first compound 0.8 µM): 0.88
relative viability ([17]; first compound 2.53 µM): 0.885
relative viability ([17]; first compound 8 µM): 0.786
relative viability ([18]; first compound 0.08 µM): 0.699
relative viability ([18]; first compound 0.253 µM): 0.657
relative viability ([18]; first compound 0.8 µM): 0.74
relative viability ([18]; first compound 2.53 µM): 0.857
relative viability ([18]; first compound 8 µM): 0.687
relative viability ([19]; first compound 0.08 µM): 0.727
relative viability ([19]; first compound 0.253 µM): 0.654
relative viability ([19]; first compound 0.8 µM): 0.711
relative viability ([19]; first compound 2.53 µM): 0.681
relative viability ([19]; first compound 8 µM): 0.664
relative viability ([20]; first compound 0.08 µM): 0.667
relative viability ([20]; first compound 0.253 µM): 0.741
relative viability ([20]; first compound 0.8 µM): 0.723
relative viability ([20]; first compound 2.53 µM): 0.699
relative viability ([20]; first compound 8 µM): 0.64
relative viability ([21]; first compound 0.253 µM): 0.763
relative viability ([21]; first compound 0.8 µM): 0.716
relative viability ([21]; first compound 2.53 µM): 0.882
relative viability ([21]; first compound 8 µM): 0.726
relative viability ([22]; first compound 0.08 µM): 0.785
relative viability ([22]; first compound 0.253 µM): 0.72
relative viability ([22]; first compound 0.8 µM): 0.501
relative viability ([22]; first compound 2.53 µM): 0.724
relative viability ([22]; first compound 8 µM): 0.617

Reference: the supplement of paper PMC10307832
